We go through eight molecules from US8962596B2 (Array BioPharma Inc., priority 2010, dated 2015).

What all share (type): biochemical
The target in test [1] is T1, JAK3 (Homo sapiens, UniProt P52333).
T1 construct: purchased Invitrogen Corporation, Carlsbad, Calif; PV4080
T1 sequence (P52333 1-1124): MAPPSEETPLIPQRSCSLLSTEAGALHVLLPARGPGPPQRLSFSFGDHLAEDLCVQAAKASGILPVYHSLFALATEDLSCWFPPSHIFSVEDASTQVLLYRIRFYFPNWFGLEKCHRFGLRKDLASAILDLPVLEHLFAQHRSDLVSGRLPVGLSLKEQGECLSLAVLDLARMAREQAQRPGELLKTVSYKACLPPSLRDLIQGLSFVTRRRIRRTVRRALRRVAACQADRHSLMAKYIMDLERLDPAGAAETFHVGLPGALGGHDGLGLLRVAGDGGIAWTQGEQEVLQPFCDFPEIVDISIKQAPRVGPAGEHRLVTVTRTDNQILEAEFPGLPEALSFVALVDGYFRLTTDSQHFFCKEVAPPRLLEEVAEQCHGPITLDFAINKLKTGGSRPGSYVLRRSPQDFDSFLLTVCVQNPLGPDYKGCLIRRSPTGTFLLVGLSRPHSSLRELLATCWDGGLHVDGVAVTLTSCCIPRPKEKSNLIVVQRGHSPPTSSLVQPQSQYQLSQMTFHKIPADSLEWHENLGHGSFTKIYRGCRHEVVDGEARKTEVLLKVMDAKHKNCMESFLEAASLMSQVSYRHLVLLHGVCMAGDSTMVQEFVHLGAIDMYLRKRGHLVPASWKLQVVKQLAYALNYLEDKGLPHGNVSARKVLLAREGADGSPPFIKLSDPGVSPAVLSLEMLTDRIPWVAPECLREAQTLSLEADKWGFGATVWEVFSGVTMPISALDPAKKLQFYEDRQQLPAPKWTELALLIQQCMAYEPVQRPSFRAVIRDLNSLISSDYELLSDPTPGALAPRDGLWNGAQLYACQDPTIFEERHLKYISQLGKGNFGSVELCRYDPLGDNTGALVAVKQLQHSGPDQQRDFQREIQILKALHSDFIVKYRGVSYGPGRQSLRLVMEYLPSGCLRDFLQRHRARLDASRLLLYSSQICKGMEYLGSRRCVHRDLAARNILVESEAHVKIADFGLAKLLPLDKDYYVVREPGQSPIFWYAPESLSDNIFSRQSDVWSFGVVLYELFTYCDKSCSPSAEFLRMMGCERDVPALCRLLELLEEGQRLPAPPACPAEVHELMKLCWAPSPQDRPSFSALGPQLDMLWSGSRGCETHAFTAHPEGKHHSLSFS
Description: JAK3 Inhibition Assay (Omnia kinase fluorescence peptide substrate assay). The conditions noted are these: averaged IC50 ranges; assay of Example D; 10 μM (Km app) or 1 mM ATP, 2.5 nM JAK3. The procedure, abridged: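 Kinase at 2.5 nM with 10 µM Omnia Y7 peptide and 10 µM (Km app) or 1 mM ATP in 25 mM HEPES pH 7.4, 10 mM MgCl2, 1 mM DTT, 0.01% Triton X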

The target of test [2] is T2, Human Tyk2 kinase domain (Homo sapiens, UniProt P29597).
T2 construct: comprising amino acids 886 to 1187 with 10 additional histidine residues; 10xHis (histidine tag) (C, cleaved yes); made in house
T2 sequence (P29597 886-1187): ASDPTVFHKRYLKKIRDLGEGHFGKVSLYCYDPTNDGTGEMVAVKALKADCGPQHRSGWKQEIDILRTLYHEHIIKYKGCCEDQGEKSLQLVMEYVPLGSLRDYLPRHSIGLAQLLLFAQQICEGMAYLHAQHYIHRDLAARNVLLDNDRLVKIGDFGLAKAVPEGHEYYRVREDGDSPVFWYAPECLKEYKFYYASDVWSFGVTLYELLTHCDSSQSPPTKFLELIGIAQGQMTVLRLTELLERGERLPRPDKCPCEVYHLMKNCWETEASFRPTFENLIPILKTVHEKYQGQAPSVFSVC
The test is described as follows: Tyk2 Inhibition Assay (Omnia kinase fluorescence peptide substrate assay). The conditions noted are these: averaged IC50 ranges; assay of Example A; 10 μM (Km app) or 1 mM ATP, 2 nM Tyk2. The procedure, abridged:
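2 nM His-tag-cleaved kinase domain (aa 886–1187) with 8 μM Omnia Y12 peptide, 10 μM (Km app) or 1 mM ATP, pH 7.4 HEPES/10 mM MgCl2, 2% DMSO. Fluorescence (ex 360/em 485 nm) every 50 s for 45 min; IC50 from 4-parameter fit of POC, top dose 10 μM.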

For test [3], the target named is T3, JAK1 (Homo sapiens, UniProt P23458).
T3 construct: purchased Invitrogen Corporation, Carlsbad, Calif; PV4775
Description: JAK1 Inhibition Assay (Omnia kinase fluorescence peptide substrate assay). The conditions noted are these: averaged IC50 ranges; assay of Example B; 40 μM (Km app) or 1 mM ATP, 15 nM JAK1.

Test [4] concerns the target T4, JAK2 (Homo sapiens, UniProt O60674).
T4 construct: purchased Invitrogen Corporation, Carlsbad, Calif; PV4288
The test is described as follows: JAK2 Inhibition Assay (Omnia kinase fluorescence peptide substrate assay). The conditions noted are these: averaged IC50 ranges; assay of Example C; 25 μM (Km app) or 1 mM ATP, 5 nM JAK2. The procedure, abridged: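 5 nM JAK2 phosphorylated 10 μM Omnia Y7 peptide with ATP at 25 μM (Km app) or 1 mM, in 25 mM HEPES pH 7.4, 10 mM MgCl2, 0.01% Triton X-100, 1 mM DTT, 2% DMSO. Fluorescence (360/485 nm) was read every 50 s for 45 min. 10-point 3-fold series from 10 μM; POC versus uninhibited and background controls, 4-parameter logistic IC50.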

pIC50: −log10 of the molar value. Where only a bound is given, the exact number is not on record here.

T3 sequence (P23458 whole entry): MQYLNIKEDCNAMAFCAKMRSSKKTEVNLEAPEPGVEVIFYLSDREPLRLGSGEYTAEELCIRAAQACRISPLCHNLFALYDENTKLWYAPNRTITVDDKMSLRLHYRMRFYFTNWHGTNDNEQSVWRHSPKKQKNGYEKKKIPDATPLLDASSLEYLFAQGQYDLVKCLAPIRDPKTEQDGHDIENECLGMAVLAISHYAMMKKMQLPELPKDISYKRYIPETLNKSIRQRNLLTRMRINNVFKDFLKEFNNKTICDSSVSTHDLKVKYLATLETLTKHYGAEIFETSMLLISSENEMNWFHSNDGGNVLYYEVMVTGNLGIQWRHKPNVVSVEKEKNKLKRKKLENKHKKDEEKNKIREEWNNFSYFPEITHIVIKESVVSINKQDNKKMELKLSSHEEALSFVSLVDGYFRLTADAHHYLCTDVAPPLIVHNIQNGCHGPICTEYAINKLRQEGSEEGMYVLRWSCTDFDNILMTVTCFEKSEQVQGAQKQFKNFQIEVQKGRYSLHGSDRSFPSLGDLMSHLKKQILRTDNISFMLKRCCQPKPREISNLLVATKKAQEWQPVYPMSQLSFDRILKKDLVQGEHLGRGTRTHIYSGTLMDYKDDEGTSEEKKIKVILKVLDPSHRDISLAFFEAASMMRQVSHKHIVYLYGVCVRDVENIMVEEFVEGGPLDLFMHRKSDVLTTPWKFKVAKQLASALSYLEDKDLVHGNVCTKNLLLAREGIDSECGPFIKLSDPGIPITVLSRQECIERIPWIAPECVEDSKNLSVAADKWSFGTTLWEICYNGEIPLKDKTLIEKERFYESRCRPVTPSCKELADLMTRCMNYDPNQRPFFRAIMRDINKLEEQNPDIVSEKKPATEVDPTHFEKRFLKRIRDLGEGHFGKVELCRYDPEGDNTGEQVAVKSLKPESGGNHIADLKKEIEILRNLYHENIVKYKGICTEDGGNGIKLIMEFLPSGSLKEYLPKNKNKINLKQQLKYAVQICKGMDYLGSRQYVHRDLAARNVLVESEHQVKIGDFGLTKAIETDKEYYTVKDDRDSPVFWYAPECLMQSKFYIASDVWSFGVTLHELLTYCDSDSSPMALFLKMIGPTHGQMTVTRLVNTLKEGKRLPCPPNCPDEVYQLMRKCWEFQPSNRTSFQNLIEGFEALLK
T4 sequence (O60674 whole entry): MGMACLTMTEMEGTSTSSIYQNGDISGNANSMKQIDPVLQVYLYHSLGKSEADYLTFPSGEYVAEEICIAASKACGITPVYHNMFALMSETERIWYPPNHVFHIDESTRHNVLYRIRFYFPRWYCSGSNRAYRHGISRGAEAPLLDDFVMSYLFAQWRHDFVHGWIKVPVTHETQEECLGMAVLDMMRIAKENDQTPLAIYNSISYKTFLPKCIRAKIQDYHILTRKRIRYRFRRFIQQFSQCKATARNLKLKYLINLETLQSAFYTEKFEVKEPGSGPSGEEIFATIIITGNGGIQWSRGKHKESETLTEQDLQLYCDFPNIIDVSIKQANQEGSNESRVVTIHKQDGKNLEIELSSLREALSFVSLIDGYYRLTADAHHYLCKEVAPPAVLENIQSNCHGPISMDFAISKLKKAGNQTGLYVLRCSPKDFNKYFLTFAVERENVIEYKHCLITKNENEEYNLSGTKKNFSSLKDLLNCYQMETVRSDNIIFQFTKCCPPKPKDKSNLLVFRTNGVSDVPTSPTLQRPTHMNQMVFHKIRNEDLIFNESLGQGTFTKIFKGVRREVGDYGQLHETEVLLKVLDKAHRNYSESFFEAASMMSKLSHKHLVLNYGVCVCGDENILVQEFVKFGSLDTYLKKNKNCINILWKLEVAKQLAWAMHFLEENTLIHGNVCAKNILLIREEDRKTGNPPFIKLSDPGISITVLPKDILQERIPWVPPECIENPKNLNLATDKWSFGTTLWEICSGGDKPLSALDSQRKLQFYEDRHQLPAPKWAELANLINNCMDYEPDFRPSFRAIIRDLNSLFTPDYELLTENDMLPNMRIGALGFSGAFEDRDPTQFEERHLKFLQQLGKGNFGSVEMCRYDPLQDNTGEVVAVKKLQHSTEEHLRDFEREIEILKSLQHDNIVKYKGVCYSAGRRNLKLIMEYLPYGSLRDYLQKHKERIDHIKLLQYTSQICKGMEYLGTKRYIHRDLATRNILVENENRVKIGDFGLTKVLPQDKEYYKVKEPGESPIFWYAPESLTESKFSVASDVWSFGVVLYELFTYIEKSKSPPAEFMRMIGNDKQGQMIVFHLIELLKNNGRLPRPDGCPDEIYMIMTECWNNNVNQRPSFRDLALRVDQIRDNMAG

By pIC50 is commonly meant the negative decadic logarithm of the IC50, by convention in mol/L. Read a high pIC50 as a low IC50. In the case of `CCS(=O)(=O)N1CC(CC#N)(n2cc(-c3nc(-c4cnn(C)c4)cc4nccn34)cn2)C1` [Example 97, 2-(1-(ethylsulfonyl)-3-(4-(7-(1-methyl-1H-pyrazol-4-yl)imidazo[1,2-c]pyrimidin-5-yl)-1H-pyrazol-1-yl)azetidin-3-yl)acetonitrile], the pIC50 in test [1] is less than 6.00; in test [2], greater than 8.00; in test [3], 6.00 to 7.00; in test [4], 7.00 to 8.00.
As for `Cn1cc(-c2cc3nccn3c(-c3cnn(C4(CC#N)CN(S(=O)(=O)CCC(F)(F)F)C4)c3)n2)cn1` [Example 98, 2-(3-(4-(7-(1-methyl-1H pyrazol-4-yl)imidazo[1,2-c]pyrimidin-5-yl)-1H-pyrazol-1-yl)-1-(3,3,3-trifluoropropylsulfonyl)azetidin-3-yl)acetonitrile], the negative logarithm of the IC50 (pIC50) in test [1] was less than 6.00; in test [2] it was greater than 8.00; in test [3] it was 6.00 to 7.00; in test [4], 7.00 to 8.00.
As to `Cn1cc(-c2cc3nccn3c(-c3cnn(C4(CC#N)CN(S(=O)(=O)c5ccccc5)C4)c3)n2)cn1` [Example 99, 2-(3-(4-(7-(1-methyl-1H-pyrazol-4-yl)imidazo[1,2-c]pyrimidin-5-yl)-1H-pyrazol-1-yl)-1-(phenylsulfonyl)azetidin-3-yl)acetonitrile], the pIC50 in test [1] is less than 6.00; in test [2], 7.00 to 8.00; in test [3], 6.00 to 7.00; in test [4] it was 6.00 to 7.00.
With `CC(C)n1cc(-c2cc3nccn3c(-c3cnn(C4(CC#N)CN(CC(F)(F)F)C4)c3)n2)cn1` [Example 100, 2-(3-(4-(7-(1-Isopropyl-1-H-pyrazol-4-yl)imidazo[1,2-c]pyrimidin-5-yl)-1H-pyrazol-1-yl)-1-(2,2,2-trifluoroethyl)azetidin-3-yl)acetonitrile], the negative-log IC50 (pIC50) in test [1] was less than 6.00; in test [2] it was greater than 8.00; in test [3], 6.00 to 7.00; in test [4], 7.00 to 8.00.
Taken in the same sequence, the figures for `CC(C)n1cc(-c2cc3nccn3c(-c3cnn(C4(CC#N)CN(S(=O)(=O)C(F)(F)F)C4)c3)n2)cn1` [Example 101, 2-(3-(4-(7-(1-Isopropyl-1H-pyrazol-4-yl)imidazo[1,2-c]pyrimidin-5-yl)-1H-pyrazol-1-yl)-1-(trifluoromethylsulfonyl)azetidine-3-yl)acetonitrile] were 6.00 to 7.00, greater than 8.00, greater than 8.00 and greater than 8.00.
Taken in the same sequence, the figures for `Cc1ncc(-c2cc3nccn3c(-c3cnn(C4(CC#N)CN(CC(F)(F)F)C4)c3)n2)s1` [Example 102, 2-(3-(4-(7-(2-Methylthiazol-5-yl)imidazo[1,2-c]pyrimidin-5-yl)-1H-pyrazol-1-yl)-1-(2,2,2-trifluoroethyl)azetidin-3-yl)acetonitrile] were less than 6.00, 7.00 to 8.00, 6.00 to 7.00 and 6.00 to 7.00.
Taken in the same sequence, the figures for `N#CCC1(n2cc(-c3nc(-c4cnn(C5CCC5)c4)cc4nccn34)cn2)CN(CC(F)(F)F)C1` [Example 103, 2-(3-(4-(7-(1-Cyclobutyl-1H-pyrazol-4-yl)imidazo[1,2-c]pyrimidin-5-yl)-1H-pyrazol-1-yl)-1-(2,2,2-trifluoroethyl)azetidin-3-yl)acetonitrile] were 6.00 to 7.00, greater than 8.00, 7.00 to 8.00 and 7.00 to 8.00.
For `CCn1cc(-c2cc3nccn3c(-c3cnn(C4(CC#N)CN(CC(F)(F)F)C4)c3)n2)cn1` [Example 104, 2-(3-(4-(7-(1-Ethyl-1H-pyrazol-4-yl)imidazo[1,2-c]pyrimidin-5-yl)-1H-pyrazol-1-yl)-1-(2,2,2-trifluoroethyl)azetidin-3-yl)acetonitrile], the pIC50 was less than 6.00 in test [1], greater than 8.00 in test [2], 6.00 to 7.00 in test [3] and 7.00 to 8.00 in test [4].
